# Data published in EP4799619A1, “COMPOUND TARGETING EGR-1 AND USE THEREOF FOR TREATMENT OF ATOPIC DERMATITIS” (AgeraMedi, Inc., priority 2023, dated 2025).
# Molecular target: EGR-1 (Homo sapiens, UniProt P18146)
# Assay: EGR-1 DNA binding activity assay (EDBA)
# Set-up: made in house
# Details: EGR-1 DNA binding inhibitory activity; EGR-1 overexpressing cell lysate; absorbance at 450 nm; compound concentration not given
# Protocol: In this experiment, the inhibitory effect of the compounds of the present invention on EGR-1 binding activity was evaluated using an EGR-1 DNA binding activity assay (EDBA).
# Single-stranded sense and antisense oligonucleotides of the following EGR-1 binding sequence (EBS) were prepared by outsourcing to Bioneer Co., Ltd. (Daejeon, Korea). In this case, the 5'-end of the sense oligonucleotide was labeled with biotin. The sense and antisense oligonucleotides were heated at 95 °C for 5 minutes and then left overnight at room temperature to hybridize the sense and antisense oligonucleotides. Hereinafter, the hybridized sense and antisense oligonucleotides are referred to as biotin-EBS. • Sense sequence: biotin-5'-[…]-3' • Antisense sequence: 5'-[…]-3'
# Avidin protein was coated on a 96-well plate (purchased from Thermo Fisher Scientific), and biotin-EBS was added to the plate at a concentration of 0.5 pmol/50 µL/well, followed by reaction at 37 °C for 1 hour to allow biotin-EBS oligonucleotide to be attached to the plate. After washing three times with phosphate buffer saline containing 0.05% Tween 20 (PBS/Tween 20) to remove unattached biotin-EBS oligonucleotides, 200 µL of PBS/Tween 20 solution containing 2% bovine serum albumin (BSA) was added to each well, followed by reaction at 37 °C for 1 hour to block the surface of the plate where no oligonucleotide was attached.
# The solution containing the sample compound and the EGR-1 protein was added to the biotin-EBS oligonucleotide coated plate prepared in step (2).
# The compound sample (1 µL) was reacted with the EGR-1 overexpressing cell lysate containing 10 mM Tris, pH 7.5, 50 mM KCl, 2% BSA and 8% glycerol at room temperature for 30 minutes, and then added to a reaction well coated with biotin-EBS and further reacted at room temperature for one hour. After washing three times with PBS/Tween 20 solution, an EGR-1 antibody was added to the PBS solution supplemented with 2% BSA and 5 mM NaCl in an amount of 50 µL per each well. The mixture was incubated at room temperature for one hour, washed three times with PBS/Tween 20 solution, and then treated with horseradish peroxidase-conjugated secondary antibody (Goat anti-rabbit IgG antibody, Cell Signaling Technology company, Danvers, Mass., USA) diluted by 1:1000 at room temperature for one hour. After washing five times with PBS/Tween 20 solution, a substrate tetramethylbenzidine solution was added to each well in an amount of 50 µL. After reacting for 5 minutes, the reaction was stopped by adding 100 µL of 2 N sulfuric acid solution. The DNA binding inhibitory activity of EGR-1 was measured by absorbance at 450 nm according to Equation 1 below. EGR-1 DNA binding inhibitory activity (%) = 100−{(As/Ap)×100} [formula]
# As: absorbance of a sample prepared by reacting an EGR-1-overexpressing cell lysate with the compound.
# Ap: absorbance of the sample treated only with EGR-1-overexpressing cell lysate.
# EGR-1, sequence (P18146 whole entry): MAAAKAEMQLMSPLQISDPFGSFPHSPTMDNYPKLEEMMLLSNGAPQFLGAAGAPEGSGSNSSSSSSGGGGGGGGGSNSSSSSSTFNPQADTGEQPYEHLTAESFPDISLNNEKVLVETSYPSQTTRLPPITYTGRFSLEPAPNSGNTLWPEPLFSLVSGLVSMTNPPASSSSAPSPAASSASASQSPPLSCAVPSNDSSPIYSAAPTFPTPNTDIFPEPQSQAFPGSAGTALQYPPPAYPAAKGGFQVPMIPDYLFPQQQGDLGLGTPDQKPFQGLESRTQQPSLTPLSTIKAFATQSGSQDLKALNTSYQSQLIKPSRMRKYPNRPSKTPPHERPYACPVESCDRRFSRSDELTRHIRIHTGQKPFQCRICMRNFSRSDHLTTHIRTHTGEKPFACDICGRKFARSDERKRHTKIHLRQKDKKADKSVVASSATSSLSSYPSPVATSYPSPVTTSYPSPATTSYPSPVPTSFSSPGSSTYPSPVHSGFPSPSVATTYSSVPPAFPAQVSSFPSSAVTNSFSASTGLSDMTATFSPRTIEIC
row,SMILES,Inhibition Rate (%)
1,"NNC(=S)Nc1cccc(C(F)(F)F)c1 [Compound 1, N-(3-(trifluoromethyl)phenyl)hydrazinethioamide]",23.60
2,"NNC(=S)Nc1ccc(F)cc1 [Compound 2, N-(4-fluorophenyl)hydrazinethioamide]",25.70
3,"NNC(=S)Nc1ccc(Br)cc1 [Compound 3, N-(4-bromophenyl)hydrazinethioamide]",20.73
4,"N#Cc1ccc(NC(=S)NN)cc1 [Compound 4, N-(4-cyanophenyl)hydrazinethioamide]",16.27
5,"NNC(=S)Nc1ccc(C(F)(F)F)cc1 [Compound 5, N-(4-(trifluoromethyl)phenyl)hydrazinethioamide]",6.33
6,"CCNC(=S)NN [Compound 6, N-ethylhydrazinethioamide]",27.00
7,"CC(C)NC(=S)NN [Compound 7, N-isopropylhydrazinethioamide]",23.33
8,"CC(C)CNC(=S)NN [Compound 8, N-isobutylhydrazinethioamide]",38.73
9,"NNC(=S)NC(=O)c1ccccc1 [Compound 9, N-(hydrazinocarbonothioyl)benzamide]",42.17
10,"NNC(=S)NCc1ccccc1 [Compound 10, N-benzylhydrazinethioamide]",35.47
11,"Cc1cccc(NC(=S)NN)c1 [Compound 11, N-(m-tolyl)hydrazinethioamide]",18.67
12,"O=C1Nc2ccc(F)cc2/C1=N/NC(=S)Nc1ccccc1 [Compound 12, (Z)-2-(5-fluoro-2-oxoindolin-3-ylidene)-N-phenylhydrazinethioamide]",28.97
13,"O=C1Nc2ccc(F)cc2/C1=N/NC(=S)Nc1cccc([N+](=O)[O-])c1 [Compound 13, (Z)-2-(5-fluoro-2-oxoindolin-3-ylidene)-N-(3-nitrophenyl)hydrazinethioamide]",25.57
14,"O=C1Nc2ccc(F)cc2/C1=N/NC(=S)Nc1ccc(F)cc1 [Compound 14, (Z)-2-(5-fluoro-2-oxoindolin-3-ylidene)-N-(4-fluorophenyl)hydrazinethioamide]",17.80
15,"O=C1Nc2ccc(F)cc2/C1=N/NC(=S)Nc1ccc(Br)cc1 [Compound 15, (Z)-N-(4-bromophenyl)-2-(5-fluoro-2-oxoindolin-3-ylidene)hydrazinethioamide]",37.07
16,"N#Cc1ccc(NC(=S)N/N=C2\C(=O)Nc3ccc(F)cc32)cc1 [Compound 16, (Z)-N-(4-cyanophenyl)-2-(5-fluoro-2-oxoindolin-3-ylidene)hydrazinethioamide]",40.57
17,"O=C1Nc2ccc(F)cc2/C1=N/NC(=S)Nc1ccc(C(F)(F)F)cc1 [Compound 17, (Z)-2-(5-fluoro-2-oxoindolin-3-ylidene)-N-(4-(trifluoromethyl)phenyl)hydrazinethioamide]",25.57
18,"O=C1Nc2c(F)cccc2/C1=N/NC(=S)Nc1ccc(F)cc1 [Compound 18, (Z)-2-(7-fluoro-2-oxoindolin-3-ylidene)-N-(4-fluorophenyl)hydrazinethioamide]",33.80
19,"O=C1Nc2c(F)cccc2/C1=N/NC(=S)Nc1ccc(Br)cc1 [Compound 19, (Z)-N-(4-bromophenyl)-2-(7-fluoro-2-oxoindolin-3-ylidene)hydrazinethioamide]",47.77
20,"N#Cc1ccc(NC(=S)N/N=C2\C(=O)Nc3c(F)cccc32)cc1 [Compound 20, (Z)-N-(4-cyanophenyl)-2-(7-fluoro-2-oxoindolin-3-ylidene)hydrazinethioamide]",44.93

row,SMILES,Inhibition Rate (%)
1,"COc1ccc2c(c1)NC(=O)/C2=N\NC(=S)Nc1ccccc1 [Compound 22, (Z)-2-(6-methoxy-2-oxoindolin-3-ylidene)-N-phenylhydrazinethioamide]",51.33
2,"COc1ccc2c(c1)NC(=O)/C2=N\NC(=S)Nc1ccccc1OC [Compound 24, (Z)-2-(6-methoxy-2-oxoindolin-3-ylidene)-N-(2-methoxyphenyl)hydrazin-1-carbothioamide]",42.00
3,"COc1ccc2c(c1)NC(=O)/C2=N\NC(=S)Nc1ccc(C(F)(F)F)cc1 [Compound 26, (Z)-2-(6-methoxy-2-oxoindolin-3-ylidene)-N-(4-(trifluoromethyl)phenyl)hydrazinethioamide]",49.67
4,"CCNC(=S)N/N=C1\C(=O)Nc2cc(OC)ccc21 [Compound 27, (Z)-N-ethyl-2-(6-methoxy-2-oxoindolin-3-ylidene)hydrazinethioamide]",44.00
5,"COc1ccc2c(c1)NC(=O)/C2=N\NC(=S)Nc1cccc(C)c1 [Compound 28, (Z)-2-(6-methoxy-2-oxoindolin-3-ylidene)-N-(m-tolyl)hydrazinethioamide]",28.67
6,"Cc1ccc2c(c1)/C(=N/NC(=S)Nc1ccccc1)C(=O)N2 [Compound 29, (Z)-2-(5-methyl-2-oxoindolin-3-ylidene)-N-phenylhydrazinethioamide]",27.50
7,"Cc1ccc2c(c1)/C(=N/NC(=S)Nc1cccc([N+](=O)[O-])c1)C(=O)N2 [Compound 30, (Z)-2-(5-methyl-2-oxoindolin-3-ylidene)-N-(3-nitrophenyl)hydrazinethioamide]",32.70
8,"COc1ccccc1NC(=S)N/N=C1\C(=O)Nc2ccc(C)cc21 [Compound 31, (Z)-N-(2-methoxyphenyl)-2-(5-methyl-2-oxoindolin-3-ylidene)hydrazinethioamide]",42.73
9,"Cc1ccc2c(c1)/C(=N/NC(=S)Nc1cccc(C(F)(F)F)c1)C(=O)N2 [Compound 32, (Z)-2-(5-methyl-2-oxoindolin-3-ylidene)-N-(3-(trifluoromethyl)phenyl)hydrazinethioamide]",40.93
10,"Cc1ccc2c(c1)/C(=N/NC(=S)Nc1ccc(F)cc1)C(=O)N2 [Compound 33, (Z)-N-(4-fluorophenyl)-2-(5-methyl-2-oxoindolin-3-ylidene)hydrazinethioamide]",37.77
11,"NC(=S)N/N=C1\C(=O)Nc2ccc(Br)cc21 [Compound 34, (Z)-2-(5-bromo-2-oxoindolin-3-ylidene)hydrazinethioamide]",46.00
12,"O=C1Nc2cccc(Br)c2/C1=N/NC(=S)Nc1cccc([N+](=O)[O-])c1 [Compound 35, (Z)-2-(4-bromo-2-oxoindolin-3-ylidene)-N-(3-nitrophenyl)hydrazinethioamide]",55.33
13,"O=C1Nc2cc(Br)ccc2/C1=N/NC(=S)Nc1cccc([N+](=O)[O-])c1 [Compound 36, (Z)-2-(6-bromo-2-oxoindolin-3-ylidene)-N-(3-nitrophenyl)hydrazinethioamide]",46.33
14,"O=C1Nc2cccc(Br)c2/C1=N/NC(=S)Nc1ccc([N+](=O)[O-])cc1 [Compound 37, (Z)-2-(4-bromo-2-oxoindolin-3-ylidene)-N-(4-nitrophenyl)hydrazinethioamide]",36.33
15,"O=C1Nc2ccc(Br)cc2/C1=N/NC(=S)Nc1ccc([N+](=O)[O-])cc1 [Compound 38, (Z)-2-(5-bromo-2-oxoindolin-3-ylidene)-N-(4-nitrophenyl)hydrazinethioamide]",51.33
16,"COc1ccccc1NC(=S)N/N=C1\C(=O)Nc2ccccc21 [Compound 39, (Z)-N-(2-methoxyphenyl)-2-(2-oxoindolin-3-ylidene)hydrazinethioamide]",47.33
17,"NC(=S)N/N=C1\C(=O)Nc2cccc(Br)c21 [Compound 40, (Z)-2-(4-bromo-2-oxoindolin-3-ylidene)hydrazinethioamide]",27.33
18,"NC(=S)N/N=C1\C(=O)Nc2cc(Br)ccc21 [Compound 41, (Z)-2-(6-bromo-2-oxoindolin-3-ylidene)hydrazinethioamide]",49.00
19,"NC(=S)N/N=C1\C(=O)Nc2c(Br)cccc21 [Compound 42, (Z)-2-(7-bromo-2-oxoindolin-3-ylidene)hydrazinethioamide]",53.00
20,"O=C1Nc2cccc(Br)c2/C1=N/NC(=S)Nc1ccccc1 [Compound 43, (Z)-2-(4-bromo-2-oxoindolin-3-ylidene)-N-phenylhydrazinethioamide]",23.00
